For 18 molecules, Solubility and Solubility in water results are on record in patent US20160303102A1, “PROCESS FOR THE PRODUCTION OF DRUG FORMULATIONS FOR ORAL ADMINISTRATION” (Alrise Biosystems GmbH, priority 2013, published 2016).

The nature of data set [1]: Solubility of exemplary therapeutic agents in organic solvents.
From the text: In this context, the solubility is indicated as the weight of the dissolved substance (the solute) per volume of the solvent (i.e. the volume of solvent added to the solute).
The conditions of data set [2]: 20° C.; cited from earlier work.

Converted amounts (≈) assume the structure as drawn. Counter-ions that a name gives are not always drawn. Marks after values point to notes of the source that are not given here.

In the case of `CN1C[C@H]2c3ccccc3Oc3ccc(Cl)cc3[C@@H]2C1` (relative stereo) [Asenapine maleate, (3aRS,12bRS)-rel-5-Chloro-2,3,3a,12b-tetrahydro-2-methyl-1H-dibenz[2,3:6,7]oxepino[4,5-c]pyrrole], the Solubility entry in data set [1] (solvent Acetone), in data set [1] (solvent Benzylalcohol), in data set [1] (solvent DMSO), in data set [1] (solvent Dimethylcarbonate), in data set [1] (solvent EMK) and in data set [1] (solvent Ethanol) was “soluble” each time. Further, the Solubility entry is listed as “soluble” in data set [1] (solvent Ethyl acetate); “soluble” in data set [1] (solvent Ethyl formate); “soluble” in data set [1] (solvent Glycofurol); “non-soluble” in data set [1] (solvent Iso propanol); “non-soluble” in data set [1] (solvent Isopropyl acetate); “soluble” in data set [1] (solvent Isopropyl formate). The Solubility result in data set [1] (solvent Methyl acetate), in data set [1] (solvent NMP) and in data set [1] (solvent THF) was “soluble” each time.

For `CC(C)=O` [Aceton], the Solubility in water entry in data set [2] is listed as “soluble”.

In the case of `O=C1CCc2ccc(OCCCCN3CCN(c4cccc(Cl)c4Cl)CC3)cc2N1` [Aripiprazole], the Solubility entry is “soluble” in data set [1] (solvent Acetone); “soluble” in data set [1] (solvent Benzyl benzoate); “soluble” in data set [1] (solvent Benzylalcohol); “soluble” in data set [1] (solvent DMSO); “soluble” in data set [1] (solvent EMK); “non-soluble” in data set [1] (solvent Ethanol). The Solubility entry in data set [1] (solvent Ethyl acetate) is listed as “soluble”; in data set [1] (solvent Ethyl formate), “soluble”; in data set [1] (solvent Glycofurol) it was “soluble”; in data set [1] (solvent Isopropyl acetate), “non-soluble”; in data set [1] (solvent Isopropyl formate) it was “soluble”; in data set [1] (solvent Methyl acetate) it was “soluble”. For the same molecule, the values for the Solubility entry in data set [1] (solvent NMP), in data set [1] (solvent THF) and in data set [1] (solvent Triacetin) were “soluble”, “soluble” and “non-soluble”, respectively.

As to `CCCCOC=O` [Butyl formate], the Solubility in water entry in data set [2] is reported as “slow decomposition”.

As for `ClCCl` [Dichlormethan], in data set [2], the Solubility in water was 20 g/L (≈ 235 mM).

Consider `COC(=O)OC` [Dimethyl Carbonate], for which the Solubility in water in data set [2] is reported as 139 g/L (≈ 1540 mM).

With `CNCC[C@H](Oc1cccc2ccccc12)c1cccs1` [Duloxetine HCl, (+)-(S)—N-Methyl-3-(naphthalen-1-yloxy)-3-(thiophen-2-yl)propan-1-amine], the Solubility entry in data set [1] (solvent Acetone) was “non-soluble”; in data set [1] (solvent Benzyl benzoate), “non-soluble”; in data set [1] (solvent Benzylalcohol), “soluble”; in data set [1] (solvent DMSO), “soluble”; in data set [1] (solvent EMK), “non-soluble”; in data set [1] (solvent Ethanol), “soluble”. Further, the Solubility result in data set [1] (solvent Ethyl acetate) is “non-soluble”; in data set [1] (solvent Ethyl formate) it was “non-soluble”; in data set [1] (solvent Glycofurol), “soluble”; in data set [1] (solvent Methyl acetate), “non-soluble”; in data set [1] (solvent Methyl benzoate), “non-soluble”; in data set [1] (solvent NMP), “soluble”. Further, the Solubility entry in data set [1] (solvent THF) is listed as “soluble”; in data set [1] (solvent Triacetin), “non-soluble”.

Regarding `CCOC(C)=O` [Ethyl acetate], in data set [2], the Solubility in water is on record as 85.3 g/L.

Regarding `CCOC=O` [Ethyl formate], the Solubility in water in data set [2] is on record as 105*** g/L.

For `CC(C)OC=O` [Isopropyl formate], the Solubility in water result in data set [2] is on record as “slow decomposition”.

With `COC(C)=O` [Methyl acetate], in data set [2], the Solubility in water was 319 g/L.

For `CC(=O)C(C)C` [Methylisopropylketone], the Solubility in water in data set [2] is 6 g/L (≈ 69.7 mM).

Regarding `OCCOCCN1CCN(C2=Nc3ccccc3Sc3ccccc32)CC1` [Quetiapine fumarate, 2-(2-(4-dibenzo[b,f][1,4]thiazepine-11-yl-1-piperazinyl)ethoxy)ethanol], the Solubility entry in data set [1] (solvent Acetone) is given as “non-soluble”; in data set [1] (solvent Benzylalcohol), “soluble”; in data set [1] (solvent DMSO), “soluble”; in data set [1] (solvent EMK), “non-soluble”; in data set [1] (solvent Ethanol) it was “non-soluble”; in data set [1] (solvent Ethyl acetate) it was “non-soluble”. Further, the Solubility entry in data set [1] (solvent Ethyl formate) is “non-soluble”; in data set [1] (solvent Glycofurol), “soluble”; in data set [1] (solvent Methyl acetate) it was “non-soluble”; in data set [1] (solvent NMP) it was “soluble”; in data set [1] (solvent THF), “soluble”; in data set [1] (solvent Triacetin), “non-soluble”.

Take `O=C(c1ccc(OCCN2CCCCC2)cc1)c1c(-c2ccc(O)cc2)sc2cc(O)ccc12` [Raloxifene HCl, [6-hydroxy-2-(4-hydroxyphenyl)-benzothiophen-3-yl]-[4-[2-(1-piperidyl)ethoxy]phenyl]-methanone]: the Solubility entry in data set [1] (solvent Acetone) is listed as “non-soluble”; in data set [1] (solvent Benzyl formate), “non-soluble”; in data set [1] (solvent Benzylalcohol) it was “non-soluble”; in data set [1] (solvent DMSO), “soluble”; in data set [1] (solvent Dichloromethane) it was “non-soluble”; in data set [1] (solvent EMK) it was “non-soluble”. Further, the Solubility result in data set [1] (solvent Ethanol), in data set [1] (solvent Ethyl acetate), in data set [1] (solvent Ethyl formate), in data set [1] (solvent Isopropyl acetate), in data set [1] (solvent Isopropyl formate) and in data set [1] (solvent Methyl acetate) was “non-soluble” throughout. Also, the Solubility entry in data set [1] (solvent NMP) is on record as “soluble”; in data set [1] (solvent Propyl formate) it was “non-soluble”; in data set [1] (solvent THF), “non-soluble”.

On to `CC(C)c1nc(N(C)S(C)(=O)=O)nc(-c2ccc(F)cc2)c1/C=C/[C@@H](O)C[C@@H](O)CC(=O)O` [Rosuvastatin Ca, (3R,5S,6E)-7-[4-(4-fluorophenyl)-2-(N-methylmethanesulfonamido)-6-(propan-2-yl)pyrimidin-5-yl]-3,5-dihydroxyhept-6-enoic acid], for which the Solubility result in data set [1] (solvent Acetone) is “soluble”; in data set [1] (solvent Benzylalcohol), “soluble”; in data set [1] (solvent DMSO), “soluble”; in data set [1] (solvent EMK), “soluble”; in data set [1] (solvent Ethanol) it was “non-soluble”; in data set [1] (solvent Ethyl acetate), “soluble”. Also, the Solubility entry is given as “soluble” in data set [1] (solvent Ethyl formate); “soluble” in data set [1] (solvent Glycofurol); “non-soluble” in data set [1] (solvent Isopropyl acetate); “non-soluble” in data set [1] (solvent Isopropyl formate); “soluble” in data set [1] (solvent Methyl acetate); “soluble” in data set [1] (solvent NMP). Also, the Solubility result in data set [1] (solvent THF) is listed as “soluble”; in data set [1] (solvent Triacetin), “non-soluble”.

With `CCCOC=O` [n- Propyl formate], in data set [2], the Solubility in water is given as 28 g/L.

`CCCOC(C)=O` [n-Propyl acetate]: in data set [2], the Solubility in water was 21.2 g/L.

For `CC(=O)OC(C)(C)C` [tert. Butyl acetate], in data set [2], the Solubility in water result is recorded as “insoluble”.
